In patent EP3319936B1, “BRIDGE LINKERS FOR CONJUGATION OF CELL-BINDING MOLECULES” (priority 2015, dated 2015):

What was measured:
SK-OV-3 cell (Ag+) = assay: In vitro cytotoxicity (MTT) assay, SK-OV-3 cells; assay type: cell-based, human
Procedure: (§1) The cell lines used in the cytotoxicity assays were HL-60, a human promyelocytic leukemia cell line; NCI-N87, a human gastric carcinoma cell line; and SKOV3, a human ovarian carcinoma cell line. […] For SKOV3 cells, the cells were grown in McCoy's 5A Medium with 10% FBS. To run the assay, the cells (180 µl, 6000 cells) were added to each well in a 96-well plate and incubated for 24 hours at 37°C with 5% CO2. Next, the cells were treated with test compounds (20 µl) at various concentrations in appropriate cell culture medium (total volume, 0.2 mL). The control wells contain cells and the medium but lack the test compounds. The plates were incubated for 120 hours at 37°C with 5% CO2. MTT (5mg/ml) was then added to the wells (20 µl) and the plates were incubated for 1.5hr at 37°C. The medium was carefully removed and DMSO (180 µl) was added afterward. […] The inhibition% was calculated according to the following equation: inhibition% = [1-(assay-blank)/(control-blank)] × 100.

N87 cell (Ag+) = assay: In vitro cytotoxicity (MTT) assay, N87 cells; assay type: cell-based, human
Procedure: as §1

HL60 cell (Ag-) = assay: In vitro cytotoxicity (MTT) assay, HL60 cells; assay type: cell-based; conditions: HL-60 human promyelocytic leukemia cell line, 120 hours incubation
Procedure: as §1

**Q.** How did the IC50 (SK-OV-3 cell (Ag+); SKOV3 human ovarian carcinoma cell line, 120 hours incubation, MTT) turn out when T-DM1 was run?
**A.** 0.177 nM

**Q.** And the “Specificity for SK-OV-3 cell” value (SK-OV-3 cell (Ag+); matches ratio of HL60 (Ag-) IC50 bound to SK-OV-3 IC50)?
**A.** over 84

**Q.** And the IC50 (N87 cell (Ag+); NCI-N87 human gastric carcinoma cell line, 120 hours incubation, MTT)?
**A.** 0.266 nM

**Q.** And the “Specificity for N87 cell” value (N87 cell (Ag+); matches ratio of HL60 (Ag-) IC50 bound to N87 IC50)?
**A.** over 56

**Q.** And the IC50 (HL60 cell (Ag-))?
**A.** > 15 nM
